Six compounds from patent publication US7972828B2, “Stabilized compositions of thermostable DNA polymerase and anionic or zwitterionic detergent” (Sigma-Aldrich Co., priority 2006, dated 2011) can be followed below.

What all share (assay type): biochemical
Test [1] concerns the target T1, Taq DNA polymerase (Thermus aquaticus, UniProt P19821).
T1 construct: purchased Sigma Aldrich, St. Louis, Mo
Description: PCR detergent screening for ability to stabilize Taq DNA polymerase. The conditions noted are these: for Detergent supported PCR in screening reactions: detergent tested at 5%, 0.5%, 0.05%, 0.005% or 0.0005%. On the procedure: A PCR assay was used to screen 47 of the potential candidate detergents for their ability to stabilize Taq DNA polymerase. The final concentration of each detergent tested was 5%, 0.5%, 0.05%, 0.005%, or 0.0005%. A forward primer (5′-[…]-3′; SEQ ID No:1) and a reverse primer (5′-[…]-3′; SEQ ID No:2) were designed to amplify a 500 bp fragment of lambda DNA. Each 10 μl reaction contained:
1 μl 10 μM Forward Primer
1 μl 10 μM Reverse Primer
0.1 μl 5 Units/μl Taq DNA polymerase
The cycling parameters were 94° C. for 15 min and 30 cycles of 94° C. for 30 sec and 70° C. for 30 sec, and a 4° C. hold. For each series of detergents tested, positive control reactions comprising 0.0005% Tween 20 were included, as well as negative control reactions without any detergent. An aliquot of each reaction was resolved by agarose gel electrophoresis.

Test [2] has as its target T1, Taq DNA polymerase. Description: SYBR Green quantitative real-time PCR amplification efficiency on human genomic DNA. Details: key to Reaction Efficiencies CD14F: *: No amplification product; key to Ct 14-3-3 / Ct CD14F / Ct HoxA2: cycle at which fluorescence exceeds a defined threshold. The conditions noted are these: for Efficiency (dilutional efficiency) 14-3-3 / Efficiency (dilutional efficiency) CD14F / Efficiency (dilutional efficiency) HoxA2 / Efficiency (dilutional efficiency) PGK1: slope of serially diluted template plots. The text has this: The efficiency of amplification by Taq DNA polymerase in the presence of Tween 20 or the anionic detergent, poly (ethylene glycol) 4-nonylphenyl 3 sulfopropyl ether potassium salt, was compared using SYBR Green quantitative real-time PCR (qPCR) to amplify four different fragments in Msel-digested or intact human genomic DNA. Each reaction comprised 1× Jumpstart Taq Ready mix (Sigma Aldrich, St. Louis, Mo.) formulated with Tween 20 or poly (ethylene glycol) 4-nonylphenyl 3 sulfopropyl ether potassium salt, 1×ROX (reference dye), 0.8×SYBR green, 0.4 μM primers. The template was serially diluted such that reactions contained 25 ng, 2.5 ng, or 0.25 ng of intact DNA or 400 ng, 40 ng, of 4 ng of digested DNA. The cycling profile was 95° C. for 3 min, 35 cycles of 95° C. for 30 sec, 55° C. for 60 sec, and 72° C. for 120 sec.
Table 2 presents the Ct values (which is the cycle that the fluorescence exceeds a defined threshold value) for each amplified product using the different templates. The ‘no template’ control reactions (for every primer pair) produced no amplicons.
The efficiency of amplification was derived from the slopes of the serially diluted template amplification plots (dilutional efficiency), and the percent efficiency is also presented in Table 2.
Individual reaction efficiencies were calculated in an effort to explore the nature of the dilutional efficiency effects. […] That is, reactions with lower amounts of template were less efficiently primed or initiated in the presence of Tween 20 than in the presence of the anionic surfactant. Once the amplification process began, however, the reaction efficiencies were detergent independent.
A general note: Real-time PCR tracks product formation cycle by cycle.

For test [3], the target named is T1, Taq DNA polymerase. The test can be described thus: Long-term stability of Taq formulations with DTT, assessed by PCR. As to conditions: stored at 25° C. 6 to 40 days, higher concentration of DTT (0.2 mM). The method, then: The long-term stability of Taq formulated with either Tween 20, an anionic detergent, or a zwitterionic detergent was compared in the presence of two concentrations of DTT. Taq was formulated with 0.01% or 0.1% Tween 20, 0.1% or 1% poly(ethylene glycol) 4-nonylphenyl 3 sulfopropyl ether potassium salt, or 1% CHAPS. Each formulation was stored in the presence of 0.02 mM DTT or 0.2 mM DTT at 25° C. for periods of time ranging from 6 days to 40 days. The calculated corresponding periods for storage at −20° C. ranged from about 1.5 years to about 10 years (see FIG. 2). The ability of various formulations of Taq to support PCR was assessed using a PCR assay similar to that described in Example 1. The same primers and reactions conditions were used.
An aliquot of each reaction was resolved by agarose gel electrophoresis.

Test [4] has as its target T1, Taq DNA polymerase. Description: Specificity of PCR amplification (BsrGIO, SacIO fragments) on agarose gel. As to conditions: 352 bp and 360 bp fragments, HEK293 genomic DNA. On the procedure: To determine whether amplification in the presence of the anionic detergent, poly (ethylene glycol) 4-nonylphenyl 3-sulfopropyl ether potassium salt, produced less non-specific products, formulations comprising Tween 20 were compared to an anionic detergent formulation. Primers (see Table 4) were designed to amplify a 352 by fragment (BsrGIO) and a 360 by fragment (SacIO) in human genomic DNA. The reactions (50 μl) contained […] HEK293 genomic DNA, […], 1×PCR Buffer, 0.2 mM dNTPs, 0.05 U/μL Taq, and 4% DMSO. Thermocycling parameters were 94° C. for 2 min, 30 cycles of 94° C. for 20 sec, 58° C. for 30 sec, and 72° C. for 80 sec, a final extension at 72° C. for 10 min, and a 4° C. hold.
Aliquots of each sample were run on an agarose gel (FIG. 3). […] This finding raises the possibility that there may be a multimolecular complex comprising template, primer, detergent, and enzyme, and it is possible that the anionic detergent increased the coulombic repulsion between template/primers and the […].

T1 sequence (P19821 whole entry): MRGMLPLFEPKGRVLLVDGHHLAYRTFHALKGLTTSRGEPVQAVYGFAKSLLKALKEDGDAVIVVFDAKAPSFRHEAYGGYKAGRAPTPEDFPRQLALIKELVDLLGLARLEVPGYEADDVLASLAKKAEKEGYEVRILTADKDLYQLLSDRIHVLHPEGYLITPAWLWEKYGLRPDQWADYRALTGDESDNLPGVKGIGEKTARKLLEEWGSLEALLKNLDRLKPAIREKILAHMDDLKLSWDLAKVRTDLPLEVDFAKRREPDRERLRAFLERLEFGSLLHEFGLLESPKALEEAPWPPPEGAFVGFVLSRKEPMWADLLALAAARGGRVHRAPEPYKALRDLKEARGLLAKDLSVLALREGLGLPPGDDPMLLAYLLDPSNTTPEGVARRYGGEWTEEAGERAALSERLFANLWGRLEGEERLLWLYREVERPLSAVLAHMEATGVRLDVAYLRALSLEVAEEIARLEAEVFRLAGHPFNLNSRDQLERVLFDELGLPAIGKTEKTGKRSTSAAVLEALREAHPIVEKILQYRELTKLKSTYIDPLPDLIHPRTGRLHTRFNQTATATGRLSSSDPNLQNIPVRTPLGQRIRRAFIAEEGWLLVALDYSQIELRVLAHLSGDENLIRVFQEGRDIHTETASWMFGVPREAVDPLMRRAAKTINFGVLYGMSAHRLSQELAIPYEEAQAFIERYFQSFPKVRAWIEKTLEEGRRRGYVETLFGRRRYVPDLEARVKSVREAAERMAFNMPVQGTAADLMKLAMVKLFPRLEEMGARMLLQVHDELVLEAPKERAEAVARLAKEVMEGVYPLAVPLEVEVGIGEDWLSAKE

On to poly(ethylene glycol) monolaurate, for which, in test [1], the “Detergent supported PCR in screening reactions” value (“Detergent supported PCR” for short) was “supported PCR”.
As for “poly (ethylene glycol) 4-nonylphenyl 3-sulfopropyl ether potassium salt [Anionic]”, the “Ct 14-3-3” value in test [2] (Intact DNA, 0.25 ng) turned out to be 30.8; in test [2] (Intact DNA, 2.5 ng), 27.88; in test [2] (Intact DNA, 25 ng), 24.31; in test [2] (Mse-I digested DNA, 4 ng), 28.65; in test [2] (Mse-I digested DNA, 40 ng), 24.86; in test [2] (Mse-I digested DNA, 400 ng), 21.17. Also, the “Ct CD14F” value in test [2] (Intact DNA, 0.25 ng) is on record as “No Ct”; in test [2] (Intact DNA, 2.5 ng), 33.98; in test [2] (Intact DNA, 25 ng), 28.72; in test [2] (Mse-I digested DNA, 4 ng), “No Ct”; in test [2] (Mse-I digested DNA, 40 ng), 34.72; in test [2] (Mse-I digested DNA, 400 ng), 30.15. For the same compound, the “Ct HoxA2” value came out at 30.41 in test [2] (Intact DNA, 0.25 ng); 26.92 in test [2] (Intact DNA, 2.5 ng); 23.33 in test [2] (Intact DNA, 25 ng); 29.96 in test [2] (Mse-I digested DNA, 4 ng); 26.47 in test [2] (Mse-I digested DNA, 40 ng); 22.27 in test [2] (Mse-I digested DNA, 400 ng). For the same compound, the “Ct PGK1” value worked out at 31.59 in test [2] (Intact DNA, 0.25 ng); 28.33 in test [2] (Intact DNA, 2.5 ng); 23.62 in test [2] (Intact DNA, 25 ng); 31.38 in test [2] (Mse-I digested DNA, 4 ng); 27.95 in test [2] (Mse-I digested DNA, 40 ng); 23.17 in test [2] (Mse-I digested DNA, 400 ng). The “Reaction Efficiencies 14-3-3” value in test [2] (Intact DNA, 0.25) stood at 98%; in test [2] (Intact DNA, 2.5), 115%; in test [2] (Intact DNA, 25) it was 102%; in test [2] (MseI digested DNA, 4 ng), 103%; in test [2] (MseI digested DNA, 40 ng) it was 107%; in test [2] (MseI digested DNA, 400 ng), 101%. In addition, the “Reaction Efficiencies CD14F” value in test [2] (Intact DNA, 0.25) is reported as “*”; in test [2] (Intact DNA, 2.5), 124%; in test [2] (Intact DNA, 25) it was 99%; in test [2] (MseI digested DNA, 4 ng), “*”; in test [2] (MseI digested DNA, 40 ng), 92%; in test [2] (MseI digested DNA, 400 ng), 99%. For the same compound, the “Reaction Efficiencies HoxA2” value in test [2] (Intact DNA, 0.25) came to 102%; in test [2] (Intact DNA, 2.5) it was 102%; in test [2] (Intact DNA, 25) it was 104%; in test [2] (MseI digested DNA, 4 ng), 99%; in test [2] (MseI digested DNA, 40 ng), 101%; in test [2] (MseI digested DNA, 400 ng), 100%. Moreover, the “Reaction Efficiencies PGK1” value in test [2] (Intact DNA, 0.25) stood at 97%; in test [2] (Intact DNA, 2.5), 101%; in test [2] (Intact DNA, 25), 98%; in test [2] (MseI digested DNA, 4 ng), 97%; in test [2] (MseI digested DNA, 40 ng), 102%; in test [2] (MseI digested DNA, 400 ng), 97%. The “Efficiency (dilutional efficiency) 14-3-3” value in test [2] (Intact DNA) turned out to be 105%; in test [2] (Mse-I digested DNA) it was 75%. The “Efficiency (dilutional efficiency) CD14F” value in test [2] (Intact DNA) came to 26%; in test [2] (Mse-I digested DNA), 42%. Further, the “Efficiency (dilutional efficiency) HoxA2” value in test [2] (Intact DNA) turned out to be 86%; in test [2] (Mse-I digested DNA) it was 69%. For the same compound, the “Efficiency (dilutional efficiency) PGK1” value stood at 63% in test [2] (Intact DNA) and 58% in test [2] (Mse-I digested DNA). Further, the “Average efficiency of the three amplicons with efficiencies for both formulations” value in test [2] (digested templates) stood at 67.3%; in test [2] (intact templates), 84.7%. Further, the “Efficiency compared with the corresponding Tween 20 formulation” value in test [2] (each amplicon) was “higher efficiency”. The “Ct values compared with Tween 20-containing amplification mixes” value in test [2] (higher dilutions of template) is “lower Ct values at higher dilutions”. In addition, in test [1], the “Detergent supported PCR” value is “supported PCR”. Besides, the “Ability of stored Taq formulation to support PCR” value in test [3] was “able to support PCR at all the times tested”. Moreover, in test [4], the “Non-specific, secondary amplification products compared with standard Tween 20 formulations” value is listed as “fewer non-specific, secondary amplification products”.
For the compound `C[C@H](CCC(=O)NCCC[N+](C)(C)CC(O)CS(=O)(=O)[O-])[C@H]1CC[C@H]2[C@@H]3[C@H](O)C[C@@H]4C[C@H](O)CC[C@]4(C)[C@H]3C[C@H](O)[C@]12C` (stereo partly shown) [CHAPSO, 3-[(3-cholamidopropyl)dimethylammonio]-2-hydroxy-1-propanesulfonate], in test [1], the “Detergent supported PCR” value is recorded as “supported PCR”.
Turning to “nonyl nonoxynol-15 phosphate [Rhodafac RM710]”, the “Detergent supported PCR” value in test [1] is reported as “supported PCR”. The “Amplified products (500 bp lambda DNA fragment) on agarose gel” value in test [1] (low concentration of the detergent) is listed as “Amplified products were present”.
For `C[C@H](CCC(=O)NCCC[N+](C)(C)CCCS(=O)(=O)[O-])[C@H]1CC[C@H]2[C@@H]3[C@H](O)C[C@@H]4C[C@H](O)CC[C@]4(C)[C@@]3(C)C[C@H](O)[C@]12C` [CHAPS, 3-[(3-cholamidopropyl)dimethylammonio]-1-propanesulfonate], in test [1], the “Detergent supported PCR” value is given as “supported PCR”. Besides, the “Ability of stored Taq formulation to support PCR” value in test [3] is given as “substantially able to support PCR”.
In the case of “polyoxyethylene(150)dinonylphenyl ether [Igepal® DM-970]”, the “Detergent supported PCR” value in test [1] is “supported PCR”.
